In patent US10206399B2, “Herbicidal composition comprising uracil compound as active ingredient” (Dongbu Farm Hannong Co., Ltd., priority 2012, dated 2019):
Read-outs that look alike come from different tables or passages of the source.

Assays:
wild amaranth = assay: Nonselective composition of 1 uracil compound and 2 herbicidally active compounds, plant mortality; assay type: in vivo
Text: (§1) X is % damage by uracil compound (a) of formula 1 at the rate of application of p kg/ha; Y is % damage by conventional herbicidal compound (b) at the rate of application of q kg/ha; and E is the expected damage caused by compounds (a) and (b) at a rate of application of p and q kg/ha.
(§2) The expected activity for a given combination of two herbicides can be calculated using equation 1 above.

ryegrass = assay: as above; assay type: in vivo
Text: as §1, §2

wheat = assay: Dry field farming herbicidal composition test, plant mortality (crop)
Text: as §1, §2

Alopecurus aequalis = assay: Dry field farming herbicidal composition test, plant mortality; assay type: in vivo; details: in % (unit assumed)
Text: as §1, §2

Porippa islandica = assay: as above; assay type: in vivo
Text: as §1, §2

Capsella bursapastoris = assay: as above; assay type: in vivo; details: in % (unit assumed)
Text: as §1, §2

Lamium amplexicaule = assay: as above; assay type: in vivo; details: in % (unit assumed)
Text: as §1, §2

Aeschynomene indica = assay: as above; assay type: in vivo
Text: as §1, §2

Echinochloa crus = assay: as above; assay type: in vivo
Text: as §1, §2

Monochoria vaginalis = assay: Paddy field farming herbicidal composition test, plant mortality; assay type: in vivo; details: Pontederia vaginalis, read-out: Monochoria vaginalis mortality (measured value)
Text: as §1, §2

Ludwigia prostrate = assay: as above; assay type: in vivo
Text: as §1, §2

Abutilon theophrasti = assay: Dry field farming herbicidal composition test, plant mortality; assay type: in vivo
Text: as §1, §2

Digitaria sanguinalis = assay: as above; assay type: in vivo
Text: as §1, §2

rice plant = assay: Paddy field farming herbicidal composition test, plant mortality (crop)
Text: as §1, §2

[1] = Amaranthus caudatus, 480 h, read-out: Wild amaranth mortality (measured value)
[2] = 480 h, read-out: ryegrass mortality (measured value)
[3] = Aeschynomene indica, read-out: Aeschynomene indica mortality, measured value
[4] = Echinochloa, read-out: Echinochloa crus mortality, measured value
[5] = Abutilon theophrasti, read-out: Abutilon theophrasti mortality, measured value
[6] = Digitaria sanguinalis, read-out: Digitaria sanguinalis mortality, measured value

CCC(CC)Nc1c([N+](=O)[O-])cc(C)c(C)c1[N+](=O)[O-] [Pendimethalin]
pest or weed control at 250 g/ha (wild amaranth; [1]): 20%
pest or weed control at 250 g/ha (ryegrass; [2]): 30%

CCNc1nc(Cl)nc(NC(C)C)n1 [Atrazine]
pest or weed control at 200 g/ha (wild amaranth; [1]): 25%
pest or weed control at 200 g/ha (ryegrass; [2]): 30%

CP(=O)(O)CCC(N)C(=O)O (centres unmarked) [Glufosinate-ammonium]
pest or weed control at 150 g/ha (wild amaranth; [1]): 20%
pest or weed control at 150 g/ha (ryegrass; [2]): 10%

COc1nc(C)nc(=NC(=O)NS(=O)(=O)c2ccccc2C(=O)O)[nH]1 [Metsulfuron]
Wheat mortality, measured value (wheat; 1 g/ha): 0
Wheat mortality, measured value (wheat; 2 g/ha): 0
Wheat mortality, measured value (wheat; 4 g/ha): 0
Alopecurus aequalis mortality, measured value (Alopecurus aequalis; 1 g/ha): 0
Alopecurus aequalis mortality, measured value (Alopecurus aequalis; 2 g/ha): 0
Alopecurus aequalis mortality, measured value (Alopecurus aequalis; 4 g/ha): 0
Porippa islandica mortality, measured value (Porippa islandica; 1 g/ha): 5
Porippa islandica mortality, measured value (Porippa islandica; 2 g/ha): 20
Porippa islandica mortality, measured value (Porippa islandica; 4 g/ha): 45
Capsella bursapastoris mortality, measured value (Capsella bursapastoris; 1 g/ha): 7
Capsella bursapastoris mortality, measured value (Capsella bursapastoris; 2 g/ha): 24
Capsella bursapastoris mortality, measured value (Capsella bursapastoris; 4 g/ha): 48
Lamium amplexicaule mortality, measured value (Lamium amplexicaule; 1 g/ha): 11
Lamium amplexicaule mortality, measured value (Lamium amplexicaule; 2 g/ha): 29
Lamium amplexicaule mortality, measured value (Lamium amplexicaule; 4 g/ha): 57

Cc1nn(-c2cc(CC(Cl)C(=O)O)c(Cl)cc2F)c(=O)n1C(F)F (centres unmarked) [Carfentrazone]
Wheat mortality, measured value (wheat; 1 g/ha): 0
Wheat mortality, measured value (wheat; 2 g/ha): 0
Wheat mortality, measured value (wheat; 4 g/ha): 0
Aeschynomene indica mortality, measured value (Aeschynomene indica; 1 g/ha): 5
Aeschynomene indica mortality, measured value (Aeschynomene indica; 2 g/ha): 20
Aeschynomene indica mortality, measured value (Aeschynomene indica; 4 g/ha): 40
pest or weed control at 5 g/ha (Aeschynomene indica; [3]): 45%
pest or weed control at 10 g/ha (Aeschynomene indica; [3]): 70%
Echinochloa crus mortality, measured value (Echinochloa crus; 1 g/ha): 0
Echinochloa crus mortality, measured value (Echinochloa crus; 2 g/ha): 0
Echinochloa crus mortality, measured value (Echinochloa crus; 4 g/ha): 0
pest or weed control at 5 g/ha (Echinochloa crus; [4]): 0%
pest or weed control at 10 g/ha (Echinochloa crus; [4]): 5%
pest or weed control at 5 g/ha (Monochoria vaginalis): 20%
pest or weed control at 10 g/ha (Monochoria vaginalis): 45%
Ludwigia prostrate mortality (measured value) (Ludwigia prostrate; 5 g/ha): 35%
Ludwigia prostrate mortality (measured value) (Ludwigia prostrate; 10 g/ha): 50%
Corn mortality (measured value) (corn; 1 g/ha): 0
Corn mortality (measured value) (corn; 2 g/ha): 0
Corn mortality (measured value) (corn; 4 g/ha): 0
Corn mortality, measured value (corn; 5 g/ha): 0
Corn mortality, measured value (corn; 10 g/ha): 1
Alopecurus aequalis mortality, measured value (Alopecurus aequalis; 1 g/ha): 0
Alopecurus aequalis mortality, measured value (Alopecurus aequalis; 2 g/ha): 0
Alopecurus aequalis mortality, measured value (Alopecurus aequalis; 4 g/ha): 0
Abutilon theophrasti mortality, measured value (Abutilon theophrasti; 1 g/ha): 10
Abutilon theophrasti mortality, measured value (Abutilon theophrasti; 2 g/ha): 25
Abutilon theophrasti mortality, measured value (Abutilon theophrasti; 4 g/ha): 45
pest or weed control at 5 g/ha (Abutilon theophrasti; [5]): 50%
pest or weed control at 10 g/ha (Abutilon theophrasti; [5]): 75%
Digitaria sanguinalis mortality, measured value (Digitaria sanguinalis; 1 g/ha): 0
Digitaria sanguinalis mortality, measured value (Digitaria sanguinalis; 2 g/ha): 0
Digitaria sanguinalis mortality, measured value (Digitaria sanguinalis; 4 g/ha): 0
pest or weed control at 5 g/ha (Digitaria sanguinalis; [6]): 0%
pest or weed control at 10 g/ha (Digitaria sanguinalis; [6]): 5%
Porippa islandica mortality, measured value (Porippa islandica; 1 g/ha): 5
Porippa islandica mortality, measured value (Porippa islandica; 2 g/ha): 15
Porippa islandica mortality, measured value (Porippa islandica; 4 g/ha): 40
Rice plant mortality (measured value) (rice plant; 5 g/ha): 0
Rice plant mortality (measured value) (rice plant; 10 g/ha): 0
Capsella bursapastoris mortality, measured value (Capsella bursapastoris; 1 g/ha): 0
Capsella bursapastoris mortality, measured value (Capsella bursapastoris; 2 g/ha): 15
Capsella bursapastoris mortality, measured value (Capsella bursapastoris; 4 g/ha): 35
Lamium amplexicaule mortality, measured value (Lamium amplexicaule; 1 g/ha): 5
Lamium amplexicaule mortality, measured value (Lamium amplexicaule; 2 g/ha): 20
Lamium amplexicaule mortality, measured value (Lamium amplexicaule; 4 g/ha): 40

O=C(O)c1nc(Cl)ccc1Cl [Clopyralid]
pest or weed control at 125 g/ha (wild amaranth; [1]): 10%
pest or weed control at 125 g/ha (ryegrass; [2]): 0%

Nc1cc(Cl)nc(C(=O)O)c1Cl [Aminopyralid]
Wild amaranth mortality (measured value) (wild amaranth; 250 g ai/ha): 20
ryegrass mortality (measured value) (ryegrass; 250 g ai/ha): 0

CS(=O)(=O)c1ccc(C(=O)C2C(=O)CCCC2=O)c(Cl)c1 [Sulcotrione]
pest or weed control at 75 g/ha (wild amaranth; [1]): 20%
pest or weed control at 75 g/ha (ryegrass; [2]): 20%

CCOCN(C(=O)CCl)c1c(C)cccc1CC [Acetochlor]
pest or weed control at 375 g/ha (wild amaranth; [1]): 10%
pest or weed control at 375 g/ha (ryegrass; [2]): 30%

CC(C)Oc1cc(-n2nc(C(C)(C)C)oc2=O)c(Cl)cc1Cl [Oxadiazon]
pest or weed control at 500 g/ha (wild amaranth; [1]): 30%
pest or weed control at 500 g/ha (ryegrass; [2]): 30%

O=C(Nc1ccc(F)cc1F)c1cccnc1Oc1cccc(C(F)(F)F)c1 [Diflufenican]
Wheat mortality, measured value (wheat; 37.5 g/ha): 0
Wheat mortality, measured value (wheat; 75 g/ha): 0
Wheat mortality, measured value (wheat; 150 g/ha): 1
Alopecurus aequalis mortality, measured value (Alopecurus aequalis; 37.5 g/ha): 0
Alopecurus aequalis mortality, measured value (Alopecurus aequalis; 75 g/ha): 0
Alopecurus aequalis mortality, measured value (Alopecurus aequalis; 150 g/ha): 0
Porippa islandica mortality, measured value (Porippa islandica; 37.5 g/ha): 5
Porippa islandica mortality, measured value (Porippa islandica; 75 g/ha): 20
Porippa islandica mortality, measured value (Porippa islandica; 150 g/ha): 40
Capsella bursapastoris mortality, measured value (Capsella bursapastoris; 37.5 g/ha): 6
Capsella bursapastoris mortality, measured value (Capsella bursapastoris; 75 g/ha): 21
Capsella bursapastoris mortality, measured value (Capsella bursapastoris; 150 g/ha): 45
Lamium amplexicaule mortality, measured value (Lamium amplexicaule; 37.5 g/ha): 10
Lamium amplexicaule mortality, measured value (Lamium amplexicaule; 75 g/ha): 24
Lamium amplexicaule mortality, measured value (Lamium amplexicaule; 150 g/ha): 47
